According to patent US20190150438A1, “CONFIGURATIONAL STEREOISOMER OF DIFETHIALONE, COMPOSITION AND RODENTICIDE BAIT COMPRISING SAME, AND METHOD FOR CONTROLLING TARGET RODENT PESTS” (priority 2015, published 2019):

Experiment: Hepatic content in dead rats by high-pressure liquid chromatography on a chiral column
Format: in vivo, rat
Experimental: About 0.525 g (±0.025 g) of rat liver is weighed out accurately and placed in a 50 mL polypropylene tube. 10 mL of acetone are added and the suspension is homogenized using an Ultra-Turrax® homogenizer/disperser for a time of about 30 seconds. The homogenizer/disperser shaft is rinsed with hot water and then twice with 20 mL of acetone in a polypropylene tube. The homogenate is centrifuged for 5 minutes at a centrifugation speed of 3000 rpm (revolutions per minute). The supernatant is collected and transferred into a test tube. The sample is subjected to evaporation under a stream of nitrogen (N2) at a temperature of 40° C. so as to form a dry extract.
1 mL of acetonitrile is added to the tube containing the dry extract so as to dissolve it. […]
The solution containing difethialone is analysed by high-pressure liquid chromatography on a LUX® Cellulose-3 chiral column (Phenomenex, Le Pecq, France) (150×2 mm, particle size of 3 μm) as described in point A2) above.
The measured values, expressed as micrograms of dextrorotatory enantiomer of said hetero-stereoisomer (“DFN-Hetero-dextro”) per gram of liver, are given in table 2 below.
The hepatic content of the dextrorotatory enantiomer of said hetero-stereoisomer of difethialone in each of the rats which die between D5 and D8 is measured by high-pressure liquid chromatography analysis on a chiral column. […]

SMILES: O=c1sc2ccccc2c(O)c1C1CC(c2ccc(-c3ccc(Br)cc3)cc2)Cc2ccccc21 (centres unmarked) [Total difethialone, 3-(4′-bromobiphenyl-4-yl)-1-(4-hydroxythiocoumarin-3-yl)-1,2,3,4-tetrahydronaphthalene]
- Hepatic content, mean (liver of rats which die between D5 and D8 after 10.6 ppm bait): 15.113 µg/g
- Hepatic content, mean (liver of rats which die between D9 and D13 after 3.7 ppm bait): 5.372 µg/g
